Measured values: patent US20190218508A1, “METHODS OF CELL SEPARATION” (CELLS4LIFE GROUP LLP, priority 2013, published 2019)

Test system: erythrocytes
Assay: Visual separation (sedimentation) of erythrocyte and nucleated cell fractions of blood samples
Type: cell-based
Conditions: for separation of whole blood / order from best to worst of each substance at the separation: Example 4; for separation of whole blood: whole blood 1:1 with PBS composition of 2.5% Dextran 70 plus substance at 1-5%, 30 minutes room temperature; for order from best to worst of each substance at the separation: with 2.5% Dextran 70
Description: Umbilical cord blood was collected into standard Baxter 250 ml (nominal) blood bags containing 35 ml of a citrate phosphate dextrose adenine (CPDA) anticoagulant solution.
A solution containing dextran and a further constituent selected from dimethyl sulphoxide (DMSO), dimethyl glycine (DMG), L-valine, L-proline, β-alanine, leucine, isoleucine and glycine, in phosphate-buffered saline (PBS), was prepared. This solution was added to a blood sample at a ratio of 1:1, this was then mixed thoroughly. Separation of the erythrocyte and nucleated cell fractions took place at room temperature within a time period of 15 or 30 minutes. […]
Whole blood samples were mixed with 1:1 with PBS compositions comprising 2.5% Dextran 70 plus DMSO, L-valine, L-proline, β-alanine, leucine, isoleucine, glycine and DMG. Each of the amino acids and the DMSO were tested at concentration levels of 1%, 1.5%, 2%, 2.5%, 3%, 3.5%, 4%, 4.5% and 5% in the PBS composition. After mixing, each sample was left for 30 minutes at room temperature. […]

[1] = dextran 70 Mw final 2.5% + substance final 2.5% w/v, after 30 minutes, data not shown

## CC[C@H](C)[C@H](N)C(=O)O [isoleucine]
  separation of whole blood: almost total inactivity
  order from best to worst of each substance at the separation: DMSO>L-valine>DMG>L-proline>β-alanine>Leucine/isoleucine/glycine
[1]
  separation of erythrocytes and nucleated cells: little if any separation

## CC(C)C[C@H](N)C(=O)O [leucine]
  separation of whole blood: almost total inactivity
  order from best to worst of each substance at the separation: DMSO>L-valine>DMG>L-proline>β-alanine>Leucine/isoleucine/glycine
[1]
  separation of erythrocytes and nucleated cells: little if any separation

## CC(C)[C@H](N)C(=O)O [L-valine]
  separation of whole blood: performed better than DMG
  order from best to worst of each substance at the separation: DMSO>L-valine>DMG>L-proline>β-alanine>Leucine/isoleucine/glycine
[1]
  separation of erythrocytes and nucleated cells: clear separation

## NCC(=O)O [glycine]
  separation of whole blood: almost total inactivity
  order from best to worst of each substance at the separation: DMSO>L-valine>DMG>L-proline>β-alanine>Leucine/isoleucine/glycine
[1]
  separation of erythrocytes and nucleated cells: little if any separation

## NCCC(=O)O [β-alanine]
  separation of whole blood: did very little
  order from best to worst of each substance at the separation: DMSO>L-valine>DMG>L-proline>β-alanine>Leucine/isoleucine/glycine
[1]
  separation of erythrocytes and nucleated cells: little if any separation

## O=C(O)[C@@H]1CCCN1 [L-proline]
  separation of whole blood: did very little
  order from best to worst of each substance at the separation: DMSO>L-valine>DMG>L-proline>β-alanine>Leucine/isoleucine/glycine
[1]
  separation of erythrocytes and nucleated cells: little if any separation

## C[S+](C)[O-] [DMSO, dimethyl sulphoxide]
  order from best to worst of each substance at the separation: DMSO>L-valine>DMG>L-proline>β-alanine>Leucine/isoleucine/glycine
Dextran 500 Mw final 2.5% w/v + DMSO final 1% to 5% v/v, after 15 minutes and 30 minutes
  separation of erythrocytes and nucleated cells: clear separation
Umbilical cord blood 1:1, dextran 500 Mw final 2.5% w/v + DMSO final 2% or 2.5% v/v, 30 minutes
  separation of the erythrocytes from the nucleated cells: clear separation

## CN(C)CC(=O)O [DMG, dimethyl glycine]
  order from best to worst of each substance at the separation: DMSO>L-valine>DMG>L-proline>β-alanine>Leucine/isoleucine/glycine
[1]
  separation of erythrocytes and nucleated cells: clear separation
